We go through 9 compounds from PubChem BioAssay AID1259407 (Chemical Carcinogenesis Research Information System (CCRIS), 2018).

The data set relates to CCRIS mutagenicity, Ames/micronucleus/aberration tests. The data set can be described thus: CCRIS mutagenicity studies.
The mark [1] stands for this setting: Test System: AMES SALMONELLA TYPHIMURIUM, Strain/Indicator: TA98, Metabolic Activation: NONE, Method: PREINCUBATION
The mark [2] stands for this setting: Test System: AMES SALMONELLA TYPHIMURIUM, Strain/Indicator: TA100, Metabolic Activation: NONE, Method: PREINCUBATION
Setting [3] is: Test System: AMES SALMONELLA TYPHIMURIUM, Strain/Indicator: TA98, Metabolic Activation: NONE, Method: STANDARD PLATE.
Setting [4] is: Test System: AMES SALMONELLA TYPHIMURIUM, Strain/Indicator: TA100, Metabolic Activation: NONE, Method: STANDARD PLATE.
[5] abbreviates: Test System: AMES SALMONELLA TYPHIMURIUM, Strain/Indicator: TA100, Metabolic Activation: S-9, Method: STANDARD PLATE.

Activity calls are given as the source filed them. The rule behind the calls is not given here.

As to `CN(C)CCOC(C)(c1ccccc1)c1ccccn1` (configuration not stated), the mutagenic call is, setting by setting: (Test System: AMES SALMONELLA TYPHIMURIUM, Strain/Indicator: TA98, Metabolic Activation: HAMSTER, LIVER, S-9, AROCLOR 1254 (10%), Method: PREINCUBATION) “inactive; negative”; under setting [1], “inactive; negative”; (Test System: AMES SALMONELLA TYPHIMURIUM, Strain/Indicator: TA98, Metabolic Activation: RAT, LIVER, S-9, AROCLOR 1254 (10%), Method: PREINCUBATION) “inactive; negative”; (Test System: AMES SALMONELLA TYPHIMURIUM, Strain/Indicator: TA100, Metabolic Activation: HAMSTER, LIVER, S-9, AROCLOR 1254 (10%), Method: PREINCUBATION) “inactive; negative”; under setting [2], “inactive; negative”; (Test System: AMES SALMONELLA TYPHIMURIUM, Strain/Indicator: TA100, Metabolic Activation: RAT, LIVER, S-9, AROCLOR 1254 (10%), Method: PREINCUBATION) “inactive; negative”. Further, the mutagenic call was “inactive; negative” (Test System: AMES SALMONELLA TYPHIMURIUM, Strain/Indicator: TA1535, Metabolic Activation: HAMSTER, LIVER, S-9, AROCLOR 1254 (10%), Method: PREINCUBATION); “inactive; negative” (Test System: AMES SALMONELLA TYPHIMURIUM, Strain/Indicator: TA1535, Metabolic Activation: NONE, Method: PREINCUBATION); “inactive; negative” (Test System: AMES SALMONELLA TYPHIMURIUM, Strain/Indicator: TA1535, Metabolic Activation: RAT, LIVER, S-9, AROCLOR 1254 (10%), Method: PREINCUBATION); “inactive; negative” (Test System: AMES SALMONELLA TYPHIMURIUM, Strain/Indicator: TA1537, Metabolic Activation: HAMSTER, LIVER, S-9, AROCLOR 1254 (10%), Method: PREINCUBATION); “inactive; negative” (Test System: AMES SALMONELLA TYPHIMURIUM, Strain/Indicator: TA1537, Metabolic Activation: NONE, Method: PREINCUBATION); “inactive; negative” (Test System: AMES SALMONELLA TYPHIMURIUM, Strain/Indicator: TA1537, Metabolic Activation: RAT, LIVER, S-9, AROCLOR 1254 (10%), Method: PREINCUBATION).
Regarding `O=C(c1ccccc1)[C@@H]1O[C@@H]1c1ccc(Br)cc1`, the mutagenic call is “inactive; negative” under setting [3]; “inactive; negative” (Test System: AMES SALMONELLA TYPHIMURIUM, Strain/Indicator: TA98, Metabolic Activation: RAT, LIVER, S-9, AROCLOR 1254, Method: STANDARD PLATE); “inactive; negative” under setting [4]; “inactive; negative” (Test System: AMES SALMONELLA TYPHIMURIUM, Strain/Indicator: TA100, Metabolic Activation: RAT, LIVER, S-9, AROCLOR 1254, Method: STANDARD PLATE).
Take `Nc1cc(Cl)c(Cl)cc1Cl`: for the setting “Test System: UDS RODENT HEPATOCYTES, Strain/Indicator: THY INCORP (NON-S-PHASE), Metabolic Activation: NONE, Method: AUTORADIOGRAPHY”, the mutagenic call is “inactive; negative”.
Regarding `CCCCCCCC(=O)Cl`, the mutagenic call reads like this: (Test System: AMES SALMONELLA TYPHIMURIUM, Strain/Indicator: TA98, Metabolic Activation: HAMSTER, LIVER, S-9, AROCLOR 1254 (30%), Method: PREINCUBATION) “inactive; negative”; under setting [1], “inactive; negative”; (Test System: AMES SALMONELLA TYPHIMURIUM, Strain/Indicator: TA98, Metabolic Activation: RAT, LIVER, S-9, AROCLOR 1254 (30%), Method: PREINCUBATION) “inactive; negative”; (Test System: AMES SALMONELLA TYPHIMURIUM, Strain/Indicator: TA100, Metabolic Activation: HAMSTER, LIVER, S-9, AROCLOR 1254 (5%), Method: PREINCUBATION) “active; positive”; (Test System: AMES SALMONELLA TYPHIMURIUM, Strain/Indicator: TA100, Metabolic Activation: HAMSTER, LIVER, S-9, AROCLOR 1254 (10 OR 30%), Method: PREINCUBATION) “inactive; negative”; (Test System: AMES SALMONELLA TYPHIMURIUM, Strain/Indicator: TA100, Metabolic Activation: HAMSTER, LIVER, S-9, AROCLOR 1254 (30%), Method: PREINCUBATION) “active; positive”. In addition, the mutagenic call was “inactive; negative” under setting [2]; “inactive; negative” (Test System: AMES SALMONELLA TYPHIMURIUM, Strain/Indicator: TA100, Metabolic Activation: RAT, LIVER, S-9, AROCLOR 1254 (5 OR 10%), Method: PREINCUBATION); “inactive; negative” (Test System: AMES SALMONELLA TYPHIMURIUM, Strain/Indicator: TA100, Metabolic Activation: RAT, LIVER, S-9, AROCLOR 1254 (30%), Method: PREINCUBATION); “inactive; negative” (Test System: AMES SALMONELLA TYPHIMURIUM, Strain/Indicator: TA1535, Metabolic Activation: HAMSTER, LIVER, S-9, AROCLOR 1254 (5, 10 OR 30%), Method: PREINCUBATION); “inactive; negative” (Test System: AMES SALMONELLA TYPHIMURIUM, Strain/Indicator: TA1535, Metabolic Activation: RAT, LIVER, S-9, AROCLOR 1254 (5, 10 OR 30%), Method: PREINCUBATION).
On to `O=C(N=c1sn(C(=O)c2cccc([N+](=O)[O-])c2)c2ccc([N+](=O)[O-])cc12)c1cccc([N+](=O)[O-])c1`, for which, under setting [5], the mutagenic call is “active; positive”.
As for `CC(=O)O[C@@H]1C(=O)O[C@H]2[C@@H]1OC(=O)[C@@H]2OC(C)=O`, the mutagenic call reads like this: under setting [3], “inactive; negative”; (Test System: AMES SALMONELLA TYPHIMURIUM, Strain/Indicator: TA98, Metabolic Activation: S-9, Method: STANDARD PLATE) “inactive; negative”; under setting [4], “inactive; negative”; under setting [5], “inactive; negative”; (Test System: AMES SALMONELLA TYPHIMURIUM, Strain/Indicator: TA1537, Metabolic Activation: S-9, Method: STANDARD PLATE) “inactive; negative”; (Test System: E. COLI, Strain/Indicator: WP2 (HCR), Metabolic Activation: NONE, Method: STANDARD PLATE) “inactive; negative”. Moreover, where the note is “Test System: E. COLI, Strain/Indicator: WP2 (HCR), Metabolic Activation: S-9, Method: STANDARD PLATE”, the mutagenic call was “inactive; negative”.
As to `O=C1NCCN1c1nccs1`, the mutagenic call under setting [3] was “active; positive”.
Take `O=C(O)C(=O)Nc1cccc(-c2nn[nH]n2)c1`: the mutagenic call was “inactive; negative” under setting [3]; “inactive; negative” (Test System: AMES SALMONELLA TYPHIMURIUM, Strain/Indicator: TA98, Metabolic Activation: RAT, LIVER, S-9, PHENOBARBITAL AND 5,6-BENZOFLAVONE, Method: STANDARD PLATE); “inactive; negative” under setting [4]; “inactive; negative” (Test System: AMES SALMONELLA TYPHIMURIUM, Strain/Indicator: TA100, Metabolic Activation: RAT, LIVER, S-9, PHENOBARBITAL AND 5,6-BENZOFLAVONE, Method: STANDARD PLATE); “inactive; negative” (Test System: AMES SALMONELLA TYPHIMURIUM, Strain/Indicator: TA1535, Metabolic Activation: NONE, Method: STANDARD PLATE); “inactive; negative” (Test System: AMES SALMONELLA TYPHIMURIUM, Strain/Indicator: TA1535, Metabolic Activation: RAT, LIVER, S-9, PHENOBARBITAL AND 5,6-BENZOFLAVONE, Method: STANDARD PLATE). Further, the mutagenic call is “inactive; negative” (Test System: AMES SALMONELLA TYPHIMURIUM, Strain/Indicator: TA1537, Metabolic Activation: NONE, Method: STANDARD PLATE); “inactive; negative” (Test System: AMES SALMONELLA TYPHIMURIUM, Strain/Indicator: TA1537, Metabolic Activation: RAT, LIVER, S-9, PHENOBARBITAL AND 5,6-BENZOFLAVONE, Method: STANDARD PLATE); “inactive; negative” (Test System: E. COLI, Strain/Indicator: WP2 UVRA, Metabolic Activation: NONE, Method: STANDARD PLATE).
In the case of `CCCCl`, the mutagenic call (End Point: In vitro micronucleus, Test System: Chinese Hamster Ovary (CHO-WBL) cells, Metabolic Activation: None) is “inactive; negative”.
